Where two headings read alike, the source gives them in different places.
Legend:
[1] = format: in vivo, human; details: for Cmin, geometric mean (%CV): 0‐24 h after last dose; for AUC(0-t): AUClast; for MR (metabolite‐to‐parent ratio for AUC24), geometric mean (%CV): corrected for molecular weight
healthy subjects = assay: Safety assessments; format: in vivo, human; details: for Fatigue / Headache / Insomnia / TEAEs considered treatment related / Total TEAEs reported / Subjects reporting ≥1 AE: during treatment period; for Subjects reporting ≥1 AE: sertraline n = 52, moxifloxacin n = 50
[2] = test system: cardiac repolarization in healthy subjects
Kv1.5 = details: Chinese hamster ovary cells; cited from earlier work
[3] = cited from earlier work
[4] = ref Pfizer Inc, data on file, cited from earlier work
CYP2D6 = details: cited from earlier work
CYP1A2 = details: cited from earlier work
CYP2C9 = details: cited from earlier work
CYP2C19 = details: cited from earlier work
QTc interval = details: cited from earlier work
[5] = cited from earlier work; remark: listed apart in the source
[6] = test system: cardiac repolarization in healthy subjects; assay: PK/PD exposure‐response analysis of QTcF; details: for Estimated slope of the regression for ∆QTcF versus plasma concentration: separate PK/PD models for sertraline and N‐desmethylsertraline concentration
[7] = test system: extracellular 5‐HT levels; details: compared with sertraline; cited from earlier work
[8] = Day 1, sertraline 50 mg single dose, plasma, healthy subjects
[9] = Day 14, sertraline 400 mg/day multiple dose
[10] = human, plasma, 400 mg/day, arithmetic mean ± SD, Day 14, sertraline 400 mg/day multiple dose
[11] = 1 h after dosing on day 14, sertraline 400 mg/day
[12] = 2 h after dosing on day 14, sertraline 400 mg/day
[13] = 3 h after dosing on day 14, sertraline 400 mg/day
[14] = 4 h after dosing on day 14, sertraline 400 mg/day
[15] = 5 h after dosing on day 14, sertraline 400 mg/day
[16] = 6 h after dosing on day 14, sertraline 400 mg/day
[17] = 8 h after dosing on day 14, sertraline 400 mg/day
[18] = 12 h after dosing on day 14, sertraline 400 mg/day
[19] = 24 h after dosing on day 14, sertraline 400 mg/day
[20] = categorical analysis of maximum postdose QTcF
[21] = patients admitted for sertraline overdose (>200 mg)
[22] = Day 1, sertraline 50 mg single dose

CN[C@H]1CC[C@@H](c2ccc(Cl)c(Cl)c2)c2ccccc21 [sertraline]
Cmax, geometric mean (%CV) [1, 8]: 11.39 (37) ng/mL
Cmin, arithmetic mean ± SD [1, 9]: 146.1 ± 57.093 ng/mL
Rac (observed accumulation ratio of AUC), arithmetic mean ± SD [1, 9]: 3.71 ± 0.82
Rac (observed accumulation ratio of AUC), geometric mean (%CV) [1, 9]: 3.62 (22.79)
Cmin, geometric mean (%CV) [1, 9]: 135.3 (43) ng/mL
Tmax ([1]; human, plasma, 50 mg): 5.06 h
AUC ([1]; human, plasma, 50 mg, AUC24, arithmetic mean ± SD, Day 1, sertraline 50 mg single dose): 162 ± 50.3 ng·h/mL
AUC ([1]; human, plasma, 50 mg, AUC24, geometric mean (%CV), Day 1, sertraline 50 mg single dose): 154 ng·h/mL
Cmax ([1]; human, plasma, 50 mg, arithmetic mean ± SD, Day 1, sertraline 50 mg single dose): 12.1 ± 4.34 ng/mL
Cmax ([1]; human, plasma, 50 mg, geometric mean (%CV), Day 1, sertraline 50 mg single dose, plasma, healthy subjects): 11.4 ng/mL
concentration at 4 h ([1]; human, plasma, 400 mg/day): 213 ng/mL
AUC ([1]; human, plasma, 400 mg/day, AUC24, arithmetic mean ± SD, Day 14, sertraline 400 mg/day multiple dose): 4650 ± 1580 ng·h/mL
AUC ([1]; human, plasma, 400 mg/day, AUC24, geometric mean (%CV), Day 14, sertraline 400 mg/day multiple dose): 4390 ng·h/mL
AUC(0-t) [1, 10]: 9190 ± 3720 ng·h/mL
AUC(0-t) ([1]; human, plasma, 400 mg/day, geometric mean (%CV), Day 14, sertraline 400 mg/day multiple dose): 8490 ng·h/mL
Cmax [1, 10]: 246 ± 80.6 ng/mL
Cmax ([1]; human, plasma, 400 mg/day, geometric mean (%CV), Day 14, sertraline 400 mg/day (200 mg BID, only morning dose on day 14), multiple dose, plasma): 234 ng/mL
Fatigue (healthy subjects): 17 subjects
Headache (healthy subjects): 18 subjects
Insomnia (healthy subjects): 22 subjects
TEAEs considered treatment related (healthy subjects): 238
Total TEAEs reported (healthy subjects): 251
Subjects reporting ≥1 AE (healthy subjects): 45 subjects
Severe AE / SAE (psychiatric decompensation) (healthy subjects; subject withdrawn, resolved the same day): single severe AE
Discontinued study treatment due to an AE (asthma) (healthy subjects; while receiving sertraline treatment): One additional subject
QTcF, Least Squares Difference (Sertraline‐Placebo) [2, 11]: 6.957 ms
QTcF, Least Squares Mean [2, 11]: 414.299 ms
QTcF, Least Squares Difference (Sertraline‐Placebo) [2, 12]: 7.851 ms
QTcF, Least Squares Mean [2, 12]: 415.625 ms
QTcF, Least Squares Difference (Sertraline‐Placebo) [2, 13]: 7.824 ms
QTcF, Least Squares Mean [2, 13]: 416.465 ms
QTcF, Least Squares Difference (Sertraline‐Placebo) [2, 14]: 9.651 ms
QTcF, Least Squares Mean [2, 14]: 418.252 ms
QTcF, Least Squares Difference (Sertraline‐Placebo) [2, 15]: 7.377 ms
QTcF, Least Squares Mean [2, 15]: 411.285 ms
QTcF, Least Squares Difference (Sertraline‐Placebo) [2, 16]: 6.511 ms
QTcF, Least Squares Mean [2, 16]: 408.985 ms
QTcF, Least Squares Difference (Sertraline‐Placebo) [2, 17]: 5.597 ms
QTcF, Least Squares Mean [2, 17]: 408.732 ms
QTcF, Least Squares Difference (Sertraline‐Placebo) [2, 18]: 5.677 ms
QTcF, Least Squares Mean [2, 18]: 411.019 ms
QTcF, Least Squares Difference (Sertraline‐Placebo) [2, 19]: 7.346 ms
QTcF, Least Squares Mean [2, 19]: 414.294 ms
Time of longest placebo‐adjusted QTc interval ([2]; after dosing on day 14, sertraline 400 mg/day): 4 h
Subjects with absolute QTcF interval of ≥480 milliseconds [2, 20]: no participant
Subjects with maximum increase from baseline in QTcF of ≥60 milliseconds [2, 20]: no participant
Predose (time 0) QTcF, mean (standard deviation) ([2]; day 14 of sertraline treatment period): 414.9 (14.89) milliseconds
Effect on Kv1.5 (Kv1.5): voltage‐dependent inhibition
Increase in exposure with hepatic impairment ([3]; hepatic impairment): 1.7 fold
Cmax at 400 mg/day relative to Cmax at 200 mg/day ([4]; day 14): approximately 3 times
Mean Cmax ([4]; sertraline 400 mg/day, day 14, healthy subjects): 282 ng/mL
CYP2D6 inhibitor class (CYP2D6): weak to moderate inhibitor
CYP1A2 inhibitor class (CYP1A2): weak inhibitor
CYP2C9 inhibitor class (CYP2C9): weak inhibitor
CYP2C19 inhibitor class (CYP2C19): weak inhibitor
Incidence of maximum QTcB interval prolongation (males >450 ms; females >460 ms) (QTc interval; ECG database, dosing and concomitant medications unknown): 7.9%
Increase in QT/QTc interval (QTc interval; clinical trials, sertraline 50‐200 mg/day, major depression): No statistically significant increase
Mean increase in QTc interval compared with placebo (QTc interval; meta‐analysis of study‐level trial data, sertraline 50‐200 mg/day): 3.0 millisecond
Incidence of QTc interval >500 ms (QTc interval; [21]): 6%
Incidence of QTc interval greater than 440 ms (QTc interval; [21]): 40%
Mean QTcF increase (QTc interval; prospective, cross‐sectional population‐based study (n = 42)): 1.7 milliseconds
Maximum tolerated dose [5]: 400 mg/day
Predicted mean ∆∆QTcF ([6]; at mean supratherapeutic Cmax of 234 ng/mL on day 14): 8.93 milliseconds
Predicted mean ∆ΔQTcF (change from baseline QTcF adjusted for placebo) ([6]; at mean therapeutic maximum plasma sertraline concentration of 86 ng/mL (200 mg/day)): 3.57 milliseconds
Predicted mean ∆∆QTcF ([6]; at peak plasma sertraline concentration 223.5 ng/mL): 8.55 milliseconds
Estimated slope of the regression for ∆QTcF versus plasma concentration [6]: 0.036 ms/ng/mL

COc1c(N2C[C@@H]3CCCN[C@@H]3C2)c(F)cc2c(=O)c(C(=O)O)cn(C3CC3)c12 [moxifloxacin]
Fatigue (healthy subjects): 7 subjects
Headache (healthy subjects): 11 subjects
Insomnia (healthy subjects): 11 subjects
TEAEs considered treatment related (healthy subjects): 92
Total TEAEs reported (healthy subjects): 105
Subjects reporting ≥1 AE (healthy subjects): 42 subjects
Population tmax [3]: 3 h

N[C@H]1CC[C@@H](c2ccc(Cl)c(Cl)c2)c2ccccc21 [N‐desmethylsertraline]
AUC24, arithmetic mean ± SD [1, 22]: 79.03 ± 19.199 ng·h/mL
AUC24, geometric mean (%CV) [1, 22]: 76.87 (24) ng • h/mL
Cmax, arithmetic mean ± SD [1, 22]: 4.428 ± 1.3189 ng/mL
MR (metabolite‐to‐parent ratio for AUC24), arithmetic mean ± SD [1, 22]: 0.5493 ± 0.1743
tmax, median (range) [1, 22]: 12.0 (5.00‐23.9) h
Cmax, geometric mean (%CV) [1, 8]: 4.269 (27) ng/mL
MR (metabolite‐to‐parent ratio for AUC24), geometric mean (%CV) [1, 22]: 0.5222 (34)
Cmax, geometric mean (%CV) ([1]; Day 14, sertraline 400 mg/day (200 mg BID, only morning dose on day 14), multiple dose, plasma): 249.6 (23) ng/mL
AUC24, arithmetic mean ± SD [1, 9]: 5342 ± 1109.5 ng·h/mL
AUC24, geometric mean (%CV) [1, 9]: 5227 (22) ng • h/mL
AUClast, arithmetic mean ± SD [1, 9]: 13500 ± 3225.2 ng·h/mL
AUClast, geometric mean (%CV) [1, 9]: 13110 (25) ng • h/mL
Cmin, arithmetic mean ± SD [1, 9]: 188.4 ± 39.567 ng/mL
MR (metabolite‐to‐parent ratio for AUC24), arithmetic mean ± SD [1, 9]: 1.283 ± 0.3075
tmax, median (range) [1, 9]: 8.00 (1.07‐12.1) h
Cmin, geometric mean (%CV) [1, 9]: 184.1 (23) ng/mL
MR (metabolite‐to‐parent ratio for AUC24), geometric mean (%CV) [1, 9]: 1.248 (24)
Effect on extracellular 5‐HT levels [7]: lack of effect
Estimated slope of the regression for ∆QTcF versus plasma concentration [6]: 0.036 ms/ng/mL
